Source: the NIST ThermoML archive (doi:10.1016/j.fluid.2007.04.009)

How the values were obtained:
[1] = 298.15 K; for surface tension liquid-gas: Pendant drop shape; for mass density: 101.33 kPa, Liquid
[2] = refractive index (Na D-line) (dimensionless); settings: 298.15 K; 101.33 kPa; Liquid; Standard Abbe refractometry
[3] = xn = mol fraction of the nth substance listed; settings: 298.15 K; for surface tension liquid-gas: Pendant drop shape; for mass density: 101.3 kPa, Liquid

CCOC(C)(C)C [2-ethoxy-2-methylpropane]
Settings	mass density [kg/m3]	refractive index	surface tension liquid-gas [mN/m]
[1]	735.44	–	19.73
[2]	–	1.37319	–

CCOC(C)(C)C [2-ethoxy-2-methylpropane] + CCCO
[3]
Settings	mass density [kg/m3]	surface tension liquid-gas [mN/m]
x1 = 0.0572	795.04	–
x1 = 0.067	–	23.58
x1 = 0.1043	791.43	–
x1 = 0.171	–	22.81
x1 = 0.1752	786.11	–
x1 = 0.2085	783.67	–
x1 = 0.27	779.29	–
x1 = 0.315	–	22.12
x1 = 0.3317	775.03	–
x1 = 0.3732	772.24	–
x1 = 0.412	–	21.48
x1 = 0.4205	769.2	–
x1 = 0.4756	765.72	–
x1 = 0.5326	762.15	–
x1 = 0.5639	760.27	–
x1 = 0.579	–	20.81
x1 = 0.621	756.93	–
x1 = 0.682	753.59	–
x1 = 0.7188	751.55	–
x1 = 0.7551	749.37	–
x1 = 0.763	–	20.25
x1 = 0.8334	745.06	–
x1 = 0.8737	742.66	–
x1 = 0.9142	740.45	–
x1 = 0.9567	737.98	–

CCCO [propan-1-ol]
Settings	mass density [kg/m3]	refractive index	surface tension liquid-gas [mN/m]
[1]	799.49	–	23.89
[2]	–	1.38333	–
